Tests used:
Type in all cases: biochemical
MRCK-α = MRCK-α (Homo sapiens, UniProt Q5VT25); assay: Kinome profiling MRCK-α; conditions: read-out: Inhibitory activity MRCK-α; for inhibition at 0.1 µM: 100 nM
Description: (§1) . The kinome-wide selectivity was determined following the methods previously reported by Mohedas et al., ACS Chem Biol 2013, 8, 1291-1302 and Sanvitale et al., PLoS One 2013, 8, e62721.

PAK1 = PAK1 (Homo sapiens, UniProt Q13153); assay: Kinome profiling PAK1; conditions: read-out: Inhibitory activity PAK1; for inhibition at 0.1 µM: 100 nM
Description: as §1

PRKD1 = target: T1, PRKD1 (Homo sapiens, UniProt Q15139); assay: Kinome profiling PRKD1; conditions: read-out: Inhibitory activity PRKD1; for inhibition at 0.1 µM: 100 nM
T1 sequence (Q15139 1-912): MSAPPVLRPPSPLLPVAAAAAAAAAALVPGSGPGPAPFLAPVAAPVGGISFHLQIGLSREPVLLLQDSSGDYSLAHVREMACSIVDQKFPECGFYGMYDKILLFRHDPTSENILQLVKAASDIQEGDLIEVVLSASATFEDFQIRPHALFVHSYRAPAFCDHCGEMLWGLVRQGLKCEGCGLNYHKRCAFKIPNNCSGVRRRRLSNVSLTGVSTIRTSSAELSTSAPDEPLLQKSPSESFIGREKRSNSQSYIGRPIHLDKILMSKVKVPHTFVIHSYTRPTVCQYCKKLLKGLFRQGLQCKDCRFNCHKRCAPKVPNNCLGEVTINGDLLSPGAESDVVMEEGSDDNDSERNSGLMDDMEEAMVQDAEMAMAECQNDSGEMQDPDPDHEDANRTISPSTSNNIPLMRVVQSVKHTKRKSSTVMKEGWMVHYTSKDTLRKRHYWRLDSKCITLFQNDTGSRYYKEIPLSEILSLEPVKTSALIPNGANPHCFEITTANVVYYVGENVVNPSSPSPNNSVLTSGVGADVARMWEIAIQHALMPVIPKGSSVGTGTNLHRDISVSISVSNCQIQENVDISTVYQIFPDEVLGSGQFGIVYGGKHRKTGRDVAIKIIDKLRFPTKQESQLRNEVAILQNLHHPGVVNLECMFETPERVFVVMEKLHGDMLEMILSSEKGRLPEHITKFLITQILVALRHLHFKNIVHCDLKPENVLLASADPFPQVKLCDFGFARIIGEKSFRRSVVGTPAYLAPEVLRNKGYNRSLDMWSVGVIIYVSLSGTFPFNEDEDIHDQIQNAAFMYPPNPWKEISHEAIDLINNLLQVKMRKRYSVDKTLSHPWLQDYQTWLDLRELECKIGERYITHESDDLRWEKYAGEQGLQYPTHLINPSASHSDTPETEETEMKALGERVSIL
Description: as §1

LRRK2-G2019S = LRRK2-G2019S (Homo sapiens, UniProt Q5S007, G2019S); assay: Kinome profiling LRRK2-G2019S; conditions: read-out: Inhibitory activity LRRK2-G2019S; for inhibition at 0.1 µM: 100 nM
Description: as §1

CLK3 = CLK3 (Homo sapiens, UniProt P49761); assay: Kinome profiling CLK3; conditions: read-out: Inhibitory activity CLK3; for inhibition at 0.1 µM: 100 nM
Description: as §1

EGFR = EGFR (Homo sapiens, UniProt P00533); assay: Kinome profiling EGFR; conditions: read-out: Inhibitory activity EGFR; for inhibition at 0.1 µM: 100 nM
Description: as §1

IKK-α = target: T2, IKK-α (Homo sapiens, UniProt O15111); assay: Kinome profiling IKK-α; conditions: read-out: Inhibitory activity IKK-α; for inhibition at 0.1 µM: 100 nM
T2 sequence (O15111 1-745): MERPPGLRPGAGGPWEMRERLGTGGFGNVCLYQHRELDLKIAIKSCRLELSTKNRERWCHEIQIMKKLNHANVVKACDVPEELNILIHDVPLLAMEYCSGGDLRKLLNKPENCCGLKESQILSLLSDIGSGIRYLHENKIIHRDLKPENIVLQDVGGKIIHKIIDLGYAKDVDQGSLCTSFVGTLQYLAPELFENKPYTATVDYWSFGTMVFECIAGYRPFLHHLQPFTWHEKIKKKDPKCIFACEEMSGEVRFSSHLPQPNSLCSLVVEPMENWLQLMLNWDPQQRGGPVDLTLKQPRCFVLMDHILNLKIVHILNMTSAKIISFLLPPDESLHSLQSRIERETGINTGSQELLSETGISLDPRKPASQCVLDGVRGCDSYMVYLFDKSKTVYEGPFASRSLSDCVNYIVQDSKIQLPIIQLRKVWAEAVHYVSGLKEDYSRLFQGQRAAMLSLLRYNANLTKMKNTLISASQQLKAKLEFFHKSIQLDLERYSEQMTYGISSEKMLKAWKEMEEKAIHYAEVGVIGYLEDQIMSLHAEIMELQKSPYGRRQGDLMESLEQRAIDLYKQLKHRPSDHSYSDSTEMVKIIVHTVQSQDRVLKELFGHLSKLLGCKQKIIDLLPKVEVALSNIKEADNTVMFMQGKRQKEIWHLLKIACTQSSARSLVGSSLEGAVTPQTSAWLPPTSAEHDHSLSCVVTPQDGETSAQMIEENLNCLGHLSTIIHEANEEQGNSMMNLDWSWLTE
Description: as §1

PDGFRα = PDGFRα (Homo sapiens, UniProt P16234); assay: Kinome profiling PDGFRα; conditions: read-out: Inhibitory activity PDGFRα; for inhibition at 0.1 µM: 100 nM
Description: as §1

JAK2 = JAK2 (Homo sapiens, UniProt O60674); assay: Kinome profiling JAK2; conditions: read-out: Inhibitory activity JAK2; for inhibition at 0.1 µM: 100 nM
Description: as §1

JAK2, sequence (O60674 whole entry): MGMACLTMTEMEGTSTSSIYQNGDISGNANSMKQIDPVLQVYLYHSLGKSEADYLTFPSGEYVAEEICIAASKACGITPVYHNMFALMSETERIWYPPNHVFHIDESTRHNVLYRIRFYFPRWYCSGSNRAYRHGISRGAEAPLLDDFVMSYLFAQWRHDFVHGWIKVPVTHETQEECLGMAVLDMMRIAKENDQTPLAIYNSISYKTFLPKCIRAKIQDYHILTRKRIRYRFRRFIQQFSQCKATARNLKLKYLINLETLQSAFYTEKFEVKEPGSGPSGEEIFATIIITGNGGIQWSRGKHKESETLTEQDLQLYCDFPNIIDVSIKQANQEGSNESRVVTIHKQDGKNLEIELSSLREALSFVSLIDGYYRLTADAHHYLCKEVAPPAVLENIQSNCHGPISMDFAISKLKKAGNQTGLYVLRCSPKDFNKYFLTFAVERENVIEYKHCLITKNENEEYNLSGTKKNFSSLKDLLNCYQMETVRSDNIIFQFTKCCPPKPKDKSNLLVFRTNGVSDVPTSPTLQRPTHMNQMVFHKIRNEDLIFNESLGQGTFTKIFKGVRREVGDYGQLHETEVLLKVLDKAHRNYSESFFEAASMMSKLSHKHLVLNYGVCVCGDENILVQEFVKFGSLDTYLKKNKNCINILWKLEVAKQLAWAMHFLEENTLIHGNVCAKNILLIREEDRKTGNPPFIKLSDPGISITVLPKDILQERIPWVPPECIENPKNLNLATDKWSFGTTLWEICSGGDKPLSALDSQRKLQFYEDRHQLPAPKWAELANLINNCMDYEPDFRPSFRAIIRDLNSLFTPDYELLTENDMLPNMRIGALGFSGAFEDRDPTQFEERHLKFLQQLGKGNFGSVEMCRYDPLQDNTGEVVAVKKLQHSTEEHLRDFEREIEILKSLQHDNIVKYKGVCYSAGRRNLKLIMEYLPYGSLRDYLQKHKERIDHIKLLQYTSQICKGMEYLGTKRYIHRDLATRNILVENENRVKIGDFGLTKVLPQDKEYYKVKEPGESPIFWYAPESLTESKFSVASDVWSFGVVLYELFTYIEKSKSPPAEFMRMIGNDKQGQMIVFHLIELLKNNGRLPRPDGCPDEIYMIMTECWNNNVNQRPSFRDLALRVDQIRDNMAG
LRRK2-G2019S, sequence (Q5S007 whole entry G2019S): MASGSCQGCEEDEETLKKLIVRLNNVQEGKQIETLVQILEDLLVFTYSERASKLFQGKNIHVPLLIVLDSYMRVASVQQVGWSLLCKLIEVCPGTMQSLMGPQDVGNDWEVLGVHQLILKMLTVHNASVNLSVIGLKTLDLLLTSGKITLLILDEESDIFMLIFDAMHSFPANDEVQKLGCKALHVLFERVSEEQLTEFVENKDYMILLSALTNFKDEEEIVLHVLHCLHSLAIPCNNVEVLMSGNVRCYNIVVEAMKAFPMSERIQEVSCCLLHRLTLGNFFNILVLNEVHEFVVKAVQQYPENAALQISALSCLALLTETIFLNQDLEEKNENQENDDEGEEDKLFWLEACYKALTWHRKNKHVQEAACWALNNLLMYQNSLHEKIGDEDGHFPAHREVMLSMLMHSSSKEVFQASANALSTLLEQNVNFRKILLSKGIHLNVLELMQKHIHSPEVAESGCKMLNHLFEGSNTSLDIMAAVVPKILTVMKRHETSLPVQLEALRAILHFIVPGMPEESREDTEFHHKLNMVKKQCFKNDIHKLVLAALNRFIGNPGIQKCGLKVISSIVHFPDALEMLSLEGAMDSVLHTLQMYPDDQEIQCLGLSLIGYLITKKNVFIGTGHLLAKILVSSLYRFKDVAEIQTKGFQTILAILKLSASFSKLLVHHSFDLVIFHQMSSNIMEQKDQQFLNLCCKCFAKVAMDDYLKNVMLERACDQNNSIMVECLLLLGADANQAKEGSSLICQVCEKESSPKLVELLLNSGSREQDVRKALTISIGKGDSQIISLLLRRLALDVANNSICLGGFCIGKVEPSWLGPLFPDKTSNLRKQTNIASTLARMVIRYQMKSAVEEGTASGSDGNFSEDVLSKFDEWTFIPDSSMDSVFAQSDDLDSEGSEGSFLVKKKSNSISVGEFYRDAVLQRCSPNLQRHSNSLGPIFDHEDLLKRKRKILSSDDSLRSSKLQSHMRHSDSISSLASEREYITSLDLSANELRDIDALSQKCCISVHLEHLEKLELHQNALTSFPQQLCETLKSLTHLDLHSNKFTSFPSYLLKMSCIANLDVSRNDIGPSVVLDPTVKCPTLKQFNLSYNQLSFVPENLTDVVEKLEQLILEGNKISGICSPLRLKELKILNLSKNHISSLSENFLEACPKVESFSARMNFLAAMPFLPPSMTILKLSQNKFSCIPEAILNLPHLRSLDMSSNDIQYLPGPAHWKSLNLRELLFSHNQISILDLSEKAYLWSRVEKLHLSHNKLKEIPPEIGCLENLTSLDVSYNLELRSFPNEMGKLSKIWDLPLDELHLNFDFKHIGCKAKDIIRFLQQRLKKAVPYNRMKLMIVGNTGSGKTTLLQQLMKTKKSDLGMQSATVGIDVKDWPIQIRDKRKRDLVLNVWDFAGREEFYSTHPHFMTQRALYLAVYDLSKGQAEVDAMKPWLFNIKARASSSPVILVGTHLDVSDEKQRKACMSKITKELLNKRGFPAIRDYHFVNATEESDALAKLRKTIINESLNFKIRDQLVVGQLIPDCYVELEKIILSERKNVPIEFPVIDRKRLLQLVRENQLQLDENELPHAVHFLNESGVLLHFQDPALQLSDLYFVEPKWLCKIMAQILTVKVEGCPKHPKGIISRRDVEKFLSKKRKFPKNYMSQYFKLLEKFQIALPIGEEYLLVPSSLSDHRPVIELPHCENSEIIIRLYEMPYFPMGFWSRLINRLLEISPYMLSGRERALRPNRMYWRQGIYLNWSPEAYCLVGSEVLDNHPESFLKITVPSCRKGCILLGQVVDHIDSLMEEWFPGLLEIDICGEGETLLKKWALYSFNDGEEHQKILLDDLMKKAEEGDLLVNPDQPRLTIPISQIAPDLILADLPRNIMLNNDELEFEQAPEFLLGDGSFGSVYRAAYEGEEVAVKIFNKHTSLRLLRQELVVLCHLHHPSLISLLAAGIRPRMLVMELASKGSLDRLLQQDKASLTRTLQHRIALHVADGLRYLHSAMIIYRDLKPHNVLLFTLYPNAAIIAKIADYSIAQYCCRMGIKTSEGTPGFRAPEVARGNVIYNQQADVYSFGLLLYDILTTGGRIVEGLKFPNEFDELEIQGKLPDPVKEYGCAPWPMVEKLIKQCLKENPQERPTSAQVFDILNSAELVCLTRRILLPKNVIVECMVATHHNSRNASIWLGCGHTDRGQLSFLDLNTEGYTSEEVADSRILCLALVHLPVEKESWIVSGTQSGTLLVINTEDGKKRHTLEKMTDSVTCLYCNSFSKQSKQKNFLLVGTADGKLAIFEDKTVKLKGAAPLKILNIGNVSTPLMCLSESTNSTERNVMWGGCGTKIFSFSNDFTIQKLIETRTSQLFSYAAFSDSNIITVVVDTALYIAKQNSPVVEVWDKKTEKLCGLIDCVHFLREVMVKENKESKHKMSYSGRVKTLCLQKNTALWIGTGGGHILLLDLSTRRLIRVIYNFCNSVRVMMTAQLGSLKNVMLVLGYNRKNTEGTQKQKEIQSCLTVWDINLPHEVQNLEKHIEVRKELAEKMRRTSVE
EGFR, sequence (P00533 25-1210): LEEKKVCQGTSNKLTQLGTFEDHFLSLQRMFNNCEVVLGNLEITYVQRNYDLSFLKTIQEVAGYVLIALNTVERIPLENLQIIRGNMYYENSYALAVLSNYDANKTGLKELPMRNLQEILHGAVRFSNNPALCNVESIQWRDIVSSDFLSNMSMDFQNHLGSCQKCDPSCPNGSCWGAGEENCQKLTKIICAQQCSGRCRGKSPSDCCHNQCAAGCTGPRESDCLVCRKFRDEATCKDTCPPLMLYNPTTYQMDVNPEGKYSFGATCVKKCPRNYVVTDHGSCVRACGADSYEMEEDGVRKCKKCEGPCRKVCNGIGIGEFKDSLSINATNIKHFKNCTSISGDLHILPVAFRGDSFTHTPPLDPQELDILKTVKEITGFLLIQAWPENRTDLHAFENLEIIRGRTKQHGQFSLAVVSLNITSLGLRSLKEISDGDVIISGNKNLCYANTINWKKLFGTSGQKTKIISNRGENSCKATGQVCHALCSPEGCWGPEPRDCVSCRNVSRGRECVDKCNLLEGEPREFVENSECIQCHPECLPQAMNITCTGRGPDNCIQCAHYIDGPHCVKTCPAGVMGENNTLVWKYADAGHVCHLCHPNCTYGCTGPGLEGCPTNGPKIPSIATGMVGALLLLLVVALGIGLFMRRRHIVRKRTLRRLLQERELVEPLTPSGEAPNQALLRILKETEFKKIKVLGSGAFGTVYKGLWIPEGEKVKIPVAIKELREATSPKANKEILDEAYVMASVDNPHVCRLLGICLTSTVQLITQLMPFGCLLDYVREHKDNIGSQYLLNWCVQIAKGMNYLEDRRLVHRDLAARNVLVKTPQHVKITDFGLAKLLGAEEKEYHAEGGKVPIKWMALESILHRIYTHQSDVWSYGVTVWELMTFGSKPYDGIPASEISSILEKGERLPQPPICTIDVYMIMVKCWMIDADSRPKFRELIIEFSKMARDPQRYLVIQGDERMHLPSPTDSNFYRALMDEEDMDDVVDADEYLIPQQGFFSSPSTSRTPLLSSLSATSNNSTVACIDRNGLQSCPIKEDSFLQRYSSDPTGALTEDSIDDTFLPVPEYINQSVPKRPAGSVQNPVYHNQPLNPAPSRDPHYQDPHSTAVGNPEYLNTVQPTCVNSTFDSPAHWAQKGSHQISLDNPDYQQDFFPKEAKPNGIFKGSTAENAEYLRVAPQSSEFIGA

Row | SMILES | inhibition at 0.1 µM (MRCK-α) [%] | inhibition at 1 µM (MRCK-α) [%] | inhibition at 0.1 µM (PAK1) [%] | inhibition at 1 µM (PAK1) [%] | inhibition at 0.1 µM (PRKD1) [%] | inhibition at 1 µM (PRKD1) [%] | inhibition at 0.1 µM (LRRK2-G2019S) [%] | inhibition at 1 µM (LRRK2-G2019S) [%] | inhibition at 0.1 µM (CLK3) [%] | inhibition at 1 µM (CLK3) [%] | inhibition at 0.1 µM (EGFR) [%] | inhibition at 1 µM (EGFR) [%] | inhibition at 0.1 µM (IKK-α) [%] | inhibition at 1 µM (IKK-α) [%] | inhibition at 0.1 µM (PDGFRα) [%] | inhibition at 1 µM (PDGFRα) [%] | inhibition at 0.1 µM (JAK2) [%] | inhibition at 1 µM (JAK2) [%]
1 | COc1cc(-c2cc(-c3ccc(N4CCNCC4)cc3)cnc2C)cc(OC)c1OC [Compound 10, 1-(4-(6-methyl-5-(3,4,5-trimethoxyphenyl)pyridin-3-yl)phenyl)piperazine] | -1 | 2 | 2 | 3 | 4 | 23 | 4 | 11 | 9 | 12 | 3 | 16 | 3 | 4 | 9 | 40 | 5 | 4
2 | COc1cc(-c2cc(-c3ccc(N4CCNCC4)cc3)cnc2N)cc(OC)c1OC [Compound 15, 5-(4-(piperazin-1-yl)phenyl)-3-(3,4,5-trimethoxyphenyl)pyridin-2-amine] | 6 | 50 | 0 | 6 | 11 | 50 | 16 | 57 | 0 | 0 | 8 | 37 | -1 | -2 | 39 | 76 | 0 | 0

Reference: patent US20170190705A1, “Compositions and Methods for Inhibiting BMP” (THE BRIGHAM AND WOMAN'S HOSPITAL, INC., priority 2014, published 2017)
